For two compounds, inhibition and IC50 results are on record in paper PMC10377775, “Identification of a Novel ERK5 (MAPK7) Inhibitor, MHJ-627, and Verification of Its Potent Anticancer Efficacy in Cervical Cancer HeLa Cells” (Current Issues in Molecular Biology, 2023).

Test [1] has as its target T1, ERK5 (MAPK7) (Homo sapiens, UniProt Q13164). The test is described as follows: FRET-based Z'-LYTE in vitro kinase assay, single concentration ([…]), positive control. The test is classed as biochemical.
Test [2] deals with T1, ERK5 (MAPK7). The test is described as follows: FRET-based Z'-LYTE in vitro kinase assay, […] ng ERK5 (ab126913), […] ATP. The test is classed as biochemical.

T1 sequence (Q13164 2-816): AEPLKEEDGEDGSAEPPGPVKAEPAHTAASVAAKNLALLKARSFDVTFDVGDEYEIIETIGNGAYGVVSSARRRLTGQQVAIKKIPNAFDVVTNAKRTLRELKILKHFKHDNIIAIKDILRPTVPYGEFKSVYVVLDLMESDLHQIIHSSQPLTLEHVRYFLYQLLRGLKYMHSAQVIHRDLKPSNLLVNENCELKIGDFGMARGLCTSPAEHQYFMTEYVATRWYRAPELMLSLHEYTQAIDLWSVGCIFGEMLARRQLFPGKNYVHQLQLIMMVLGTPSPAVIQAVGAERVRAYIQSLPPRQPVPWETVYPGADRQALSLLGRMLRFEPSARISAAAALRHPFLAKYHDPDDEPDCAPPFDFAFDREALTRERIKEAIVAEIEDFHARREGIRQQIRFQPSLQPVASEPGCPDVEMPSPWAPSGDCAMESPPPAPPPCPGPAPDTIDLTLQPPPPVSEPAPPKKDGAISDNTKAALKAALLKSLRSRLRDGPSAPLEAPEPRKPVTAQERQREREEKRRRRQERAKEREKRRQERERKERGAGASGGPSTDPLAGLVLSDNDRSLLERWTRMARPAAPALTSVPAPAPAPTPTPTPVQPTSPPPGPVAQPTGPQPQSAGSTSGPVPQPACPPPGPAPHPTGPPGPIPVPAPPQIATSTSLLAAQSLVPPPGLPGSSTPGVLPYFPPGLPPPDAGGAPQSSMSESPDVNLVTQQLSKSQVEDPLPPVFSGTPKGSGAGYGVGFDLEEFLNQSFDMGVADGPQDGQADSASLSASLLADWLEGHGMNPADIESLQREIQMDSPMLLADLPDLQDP

As to `CCOc1cc(N2CCC(O)CC2)ccc1Nc1ncc2c(n1)N(C)c1ccccc1C(=O)N2C` [XMD8-92], on ERK5 (MAPK7) [1], the inhibition (usually the percentage by which the read-out fell short of the control) at 5 µM was determined as 56%.

`CC(C)CCOc1cc(C(=O)C[n+]2cn(CCC(C)C)c3ccccc32)c(OCCC(C)C)c2ccccc12` [MHJ-627, 3-(2-(1,4-bis(isopentyloxy)naphthalen-2-yl)-2-oxoethyl)-1-isopentyl-1H-benzo[d]imidazol-3-ium bromide]: at ERK5 (MAPK7) [2], 910 nM corresponded to half-maximal inhibition (IC50).
